Data from US20240301409A1, “Chemically Modified Small Activating RNA” (RACTIGEN THERAPEUTICS, priority 2021, published 2024).

System: J82 cells
Assay: Apoptosis detection (FITC Annexin V, flow cytometry) in J82 cells with or without PBMC co-culture
Type: cell-based, human
Experimental: J82 cells were transfected with RAG1-40-31 and RAG1-40-53 at final concentrations of 0.1, 1, 10 and 25 nM, and 24 hours after transfection, fresh medium was replaced and a certain ratio of PBMC cells was added (J82 cells:PBMC cells=1:4). The cells were co-cultured for 48 hours. After co-culture, cells were collected and cell apoptosis was detected by flow cytometry. FIGS. 13A-13B show the relative proliferation proportion of J82 cells after the combined treatment with chemically modified saRNA RAG1-40-31 and Mitomycin C. […] Control and DMSO are the blank transfection control and the solvent for dilution control, respectively.
J82 cells were transfected with RAG1-40-31 at 0.1, 1, 10 and 25 nM. After 24 hours of transfection, the cells were refreshed with PBMC cell-containing fresh medium. The PBMC and J82 cells were co-cultured for 48 hours, and then the supernatant was discarded and the cells were collected. 500 μL PBS was added to each well for washing and then discarded, before the addition of 100 μL trypsin/well. 900 μL medium was added to stop digestion and the content was transferred to a 1.5 mL centrifuge tube. All the cells were collected through centrifugation (400 rcf, 5 min) and counted (1˜2×10^5 cells/100 μL Binding Buffer). 100 μL of 1× Binding Buffer (B&D Systems, 51-66121E), 5 μL FITC Annexin V (B&D Systems, 51-65874X) and 5 μL PI (B&D Systems, 51-66211E) were added before incubation in dark at room temperature for 15 minutes. After the incubation, 100 μL of 1× binding buffer was added before blending and transferring to a 96-well plate for analysis with flow cytometer (Beckman Coulter). The sample should be analyzed within 1 hour.
In order to verify this hypothesis, in this example, RAG1-40-31 duplex was selected to transfect J82 cells, and after 24 hours of transfection, the cells were refreshed with fresh medium and PBMC cells at a certain ratio (J82 cells:PBMC cells=1:4) were added, or cells free of PBMC were replaced as control. After 48 hours of co-culture, FITC Annexin V kit was used to detect the apoptosis of tumor cells on a flow cytometer. […] In PBMC-free cell culture, for RAG1-40-31 treatments at 0.1, 1, 10 and 25 nM, the percentages of cells in early apoptosis were 2.3%, 2.6%, 9.4% and 15.5%, respectively, and the percentages of cells in late apoptosis were 5.3%, 5.2%, 6.7% and 9.1%, respectively. In co-culture with PBMC cells, for RAG1-40-31 treatments at 0.1, 1, 10 and 25 nM, the percentages of cells in early apoptosis were 2.0%, 4.5%, 31.5% and 49.3%, respectively, and the percentages of cells in late apoptosis were 5.6%, 7.3%, 6.3% and 5.8%, respectively.

[1] = co-culture with PBMC cells (1:4) 48 hours, 0.1 nM
[2] = co-culture with PBMC cells (1:4) 48 hours, 1 nM
[3] = co-culture with PBMC cells (1:4) 48 hours, 10 nM
[4] = co-culture with PBMC cells (1:4) 48 hours, 25 nM

RAG1-40-31: saRNA duplex: sense fCfCAACUCAUUCUCCAAG*U*C (SEQ ID NO 16); antisense U*A*fCfUfUGGAGAAfUGAGfUfUGG*fC*A (SEQ ID NO 12) (sense CCAACUCAUUCUCCAAGUC; antisense UACUUGGAGAAUGAGUUGGCA; 2'-F and phosphorothioate modifications; modified_base (1)..(2) (1,2)=2′-fluoro; modified_base (17)..(19) (17,18,19)=phosphorothioate (PS) backbone modification; modified_base (2)..(21) (2,3,19,20,21)=phosphorothioate (PS) backbone modification; modified_base (3)..(20) (3,4,5,12,16,17,20)=2′-fluoro)
percentage of cells in early apoptosis (PBMC-free cell culture, 0.1 nM): 2.3% | percentage of cells in late apoptosis (PBMC-free cell culture, 0.1 nM): 5.3% | percentage of cells in early apoptosis (PBMC-free cell culture, 1 nM): 2.6% | percentage of cells in late apoptosis (PBMC-free cell culture, 1 nM): 5.2% | percentage of cells in early apoptosis (PBMC-free cell culture, 10 nM): 9.4% | percentage of cells in late apoptosis (PBMC-free cell culture, 10 nM): 6.7% | percentage of cells in early apoptosis (PBMC-free cell culture, 25 nM): 15.5% | percentage of cells in late apoptosis (PBMC-free cell culture, 25 nM): 9.1% | percentage of cells in early apoptosis [1]: 2.0% | percentage of cells in late apoptosis [1]: 5.6% | percentage of cells in early apoptosis [2]: 4.5% | percentage of cells in late apoptosis [2]: 7.3% | percentage of cells in early apoptosis [3]: 31.5% | percentage of cells in late apoptosis [3]: 6.3% | percentage of cells in early apoptosis [4]: 49.3% | percentage of cells in late apoptosis [4]: 5.8%
